Experimental data from patent publication US12534438B2, “Cannabinoid derivative as a pharmaceutically active compound and method of preparation thereof” (priority 2020, dated 2026).
Where two headings read alike, the source gives them in different places.

What was measured:
[1] = tested on: mouse model of generalised seizure (tonic hind limb extensor convulsions); assay: Maximal electroshock seizure threshold (MEST) test in the mouse; conditions: 30 min post dose
Method: The efficacy of the cannabinoid derivative according to formula (I) was tested in a mouse model of generalised seizure, the maximal electroshock seizure threshold (MEST) test.
The maximal electroshock seizure threshold (MEST) test is widely utilized preclinically to evaluate pro- or anti-convulsant properties of test compounds (Loscher et al., 1991).
In the MEST test the ability of a drug to alter the seizure threshold current required to induce hind limb tonic extensor convulsions is measured according to an “up and down” method of shock titration (Kimball et al., 1957). An increase in seizure threshold is indicative of anti-convulsant effect.
The ability of a test compound to alter the stimulus intensity, expressed as current (mA), required to induce the presence of tonic hind limb extensor convulsions, is assessed in the MEST.
Naïve mice were acclimatised to the procedure room in their home cages for up to 7 days, with food and water available ad libitum.
All animals were weighed at the beginning of the study and randomly assigned to treatment groups based on a mean distribution of body weight across groups.
The first animal within a treatment group was given a shock at the expected or estimated CC50 current. For subsequent animals, the current was lowered or raised depending on the convulsions outcome from the preceding animal, in intervals of 5 mA.
Data generated from each treatment group were used to calculate the CC50±SEM values for the treatment group.
Vehicle: (5% ethanol, 10% solutol, 85% Saline) was prepared as follows: 1 mL of ethanol, 2 mL of solutol were warmed to 60° C., in 17 mL of saline (1:2:17).
The test compound, described herein as compound 1, is as shown as formula (I). Test compound was administered at 2, 20 and 200 mg/kg (i.p.) in a 1:2:17 ethanol:solutol:0.9% saline formulation.
The data for each treatment group were recorded as the number of +'s and 0's at each current level employed and this information is then used to calculate the CC50 value (current required for 50% of the animals to show seizure behaviour)±standard error.
Test compound effects were also calculated as percentage change in CC50 from the vehicle control group.
Significant difference between drug-treated animals and controls were assessed according to Litchfield and Wilcoxon (1949).

[2] = Plasma pharmacokinetics following oral dose administration to male Wistar Han rats; format: in vivo; conditions: rat, oral gavage; for half-life / AUC(0-inf) / AUC(0-t) / Cmax / Tmax: plasma
Method: The plasma pharmacokinetics of compound 1 was assessed following oral dose administration to male Wistar Han Rats.
The Wistar Han Rat was chosen as the animal model for this study as it is an accepted rodent species for preclinical toxicity testing by regulatory agencies. Animals were socially housed (up to 3 animals of the same group) in polycarbonate cages containing appropriate bedding equipped with water bottles and may be provided with items such as devices for hiding in, paper and/or objects for chewing, unless contraindicated by study procedures. Pelleted rodent diet were provided ad libitum throughout the study, except during designated procedures.
The 9 male animals were 8 to 10 weeks old at initiation of dosing.
Vehicle: 1% Ethanol/12% Kolliphor HS-15/87% Saline (w/w/v).
Dose formulation was prepared as follows: test item was dissolved in ethanol. Kolliphor HS-15 and saline was heated separately to 60° C., and the required amount of heated Kolliphor HS-15 added to the test item/ethanol solution. The mixture was stirred at until homogenous. Hot saline was added to the mixture to meet dose level requirements, and stirred at 60° C. until a homogenous solution. Prior to release, the formulations were allowed to cool to 40° C. Subsequently, the formulations were stored at room temperature until dosing.
Groups 1, 2 and 3: The test item was administered to the appropriate animals by oral gavage. The dose was given using a plastic feeding tube.
PK Sample Collection: From animals in Group 1 to 3 blood was collected according to the PK sample collection table (outlined in Table 3). Approximately 0.2 mL blood samples was taken from the jugular vein and collected into tubes containing K2 EDTA as anti-coagulant and stored on ice.
Sample Processing and Storage: Whole blood was processed to plasma by centrifugation (3000 g for 10 minutes at 5° C.) within 1 hour of collection. Plasma samples were transferred into labelled polypropylene tubes and stored at <−75° C. until shipment.

[3] = male, Wistar Han, in vivo, po, 15 mg/kg, 15 mg/kg (measured dose 15 mg/kg)
[4] = male, Wistar Han, in vivo, po, 45 mg/kg (measured dose 101 mg/kg)
[5] = male, Wistar Han, in vivo, po, 150 mg/kg (measured dose 204 mg/kg)

C=C(C)[C@@H]1CCC(C)=C[C@H]1c1c(O)cc(-c2cnn(C)c2)cc1O [Compound 1, (1′R,2′R)-5′-methyl-4-(1-methyl-1H-pyrazol-4-yl)-2′-(prop-1-en-2-yl)-1′,2′,3′,4′-tetrahydro-[1,1′-biphenyl]-2,6-diol]
CC50 +/- SEM ([1]; 2 mg/kg i.p.): 30.8 ± 1.0 mA | CC50 +/- SEM ([1]; 20 mg/kg i.p.): 52.5 ± 1.3 mA | CC50 +/- SEM ([1]; 200 mg/kg i.p.): 197.5 ± 20.4 mA | % change from vehicle ([1]; CC50, 2 mg/kg i.p.): 27% | % change from vehicle ([1]; CC50, 20 mg/kg i.p.): 116% | % change from vehicle ([1]; CC50, 200 mg/kg i.p.): 712% | half-life ([2]; male, Wistar Han, in vivo, 15 mg/kg (measured dose 15 mg/kg)): 3.3 h | half-life ([2]; male, Wistar Han, in vivo, 45 mg/kg (measured dose 101 mg/kg)): 3.6 h | half-life ([2]; male, Wistar Han, in vivo, 150 mg/kg (measured dose 204 mg/kg)): 4.3 h | AUC(0-inf) [2, 3]: 5330 ng·h/mL | AUC(0-t) [2, 3]: 4250 ng·h/mL | Cmax [2, 3]: 1130 ng/mL | Tmax [2, 3]: 1 h | bioavailability ([2]; male, Wistar Han, in vivo, po, 15 mg/kg, 15 mg/kg (measured dose 15 mg/kg), read-out: Bioavailability): 69.6% | AUC(0-inf) [2, 4]: 48300 ng·h/mL | AUC(0-t) [2, 4]: 47900 ng·h/mL | Cmax [2, 4]: 4010 ng/mL | Tmax [2, 4]: 1 h | bioavailability ([2]; male, Wistar Han, in vivo, po, 45 mg/kg (measured dose 101 mg/kg), read-out: Bioavailability): 96.4% | AUC(0-inf) [2, 5]: 105000 ng·h/mL | AUC(0-t) [2, 5]: 101000 ng·h/mL | Cmax [2, 5]: 6730 ng/mL | Tmax [2, 5]: 8 h | bioavailability ([2]; male, Wistar Han, in vivo, po, 150 mg/kg (measured dose 204 mg/kg), read-out: Bioavailability): 107% | bioavailability ([2]; across concentrations (15, 45, 150 mg/kg)): high

CN1C(=O)CN=C(c2ccccc2)c2cc(Cl)ccc21 [Diazepam, diazepam, reference compound]
% change from vehicle ([1]; CC50, diazepam 2.5 mg/kg i.p.): 223%
